{"source": "paper PMC5805526", "about": "“ZB716, a steroidal selective estrogen receptor degrader (SERD), is orally efficacious in blocking tumor growth in mouse xenograft models” (Oncotarget, 2018)", "key": {"[1]": {"test_system": "MCF-7 breast cancer cells", "assay": "MCF-7 cell growth inhibition", "type": "cell-based", "conditions": "Homo sapiens, MCF7, 120 h; 5 days treatment, cell count vs DMSO", "method": "At the end of treatment, surviving cells were counted and normalized to control cells that were treated with vehicle (DMSO) only. (B) IC50 values were obtained by deriving logarithmic curves from the %cell survival vs. treatment dose plot."}, "[2]": {"test_system": "T47D/Y537S breast cancer cells", "assay": "T47D/Y537S ESR1 mutant cell growth inhibition", "type": "cell-based", "conditions": "Homo sapiens, 120 h, 5 days treatment", "from_the_text": "Wild-type ESR1, the Y537S ESR1 mutant were fused to a FLAG tag at their C-termini and cloned into the lentiviral vector pFLRu-FH [30]. Y537S mutation was first introduced into ESR1 using the QuikChange II XL Site-Directed Mutagenesis Kit (Agilent) with an ESR1-encoding plasmid (Accession number NM_000125.1, GeneCopoeia Inc.) as the template. […] To make lentiviral particles, pFLRu-FH vector DNAs (encoding ESR1(wt) and ESR1(Y537S)) were cotransfected with the packaging plasmids into HEK293T cells using Fugene 6 (Roche). At 48 hours post transfection, culture media containing different viruses were added to T47D cells in the presence of polybrene followed by 3-day puromycin selection for stable expression.\nViable cell numbers were counted with a Z Series Coulter Counter instrument (Beckman-Coulter) following manufacturer's instructions. […] IC50 values were obtained from dose-response curves for all treatments."}, "mutant ER (Y537S ESR1) [3]": {"molecular_target": "T1, mutant ER (Y537S ESR1) (Homo sapiens, UniProt P03372, Y537S)", "T1 construct": "added to the C terminus of full-length wild-type and mutant (Y537S) ESR1 by PCR amplification; expressed in transfected cells; host or cells: T47D, lentiviral transduction with pFLRu-FH and puromycin selection", "T1 sequence (P03372 1-595 Y537S)": "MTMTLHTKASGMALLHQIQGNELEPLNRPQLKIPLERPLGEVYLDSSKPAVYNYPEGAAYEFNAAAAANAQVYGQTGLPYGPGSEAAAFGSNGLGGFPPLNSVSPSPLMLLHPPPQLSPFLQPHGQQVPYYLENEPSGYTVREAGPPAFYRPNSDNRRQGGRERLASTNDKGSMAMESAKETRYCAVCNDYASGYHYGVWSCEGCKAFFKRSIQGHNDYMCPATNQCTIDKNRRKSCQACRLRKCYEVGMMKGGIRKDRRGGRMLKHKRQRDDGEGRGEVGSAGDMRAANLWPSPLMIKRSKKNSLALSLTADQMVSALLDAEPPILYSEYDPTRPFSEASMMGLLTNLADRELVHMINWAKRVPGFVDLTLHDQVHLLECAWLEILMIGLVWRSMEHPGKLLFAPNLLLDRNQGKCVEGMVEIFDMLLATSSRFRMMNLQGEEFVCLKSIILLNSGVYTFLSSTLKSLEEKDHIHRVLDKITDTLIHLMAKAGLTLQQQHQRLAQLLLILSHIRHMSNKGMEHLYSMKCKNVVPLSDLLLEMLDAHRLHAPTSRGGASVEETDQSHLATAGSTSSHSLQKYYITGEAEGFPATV", "assay": "ER downregulation in T47D/Y537S cells (Wes Simple Western)", "type": "cell-based", "conditions": "four hours treatment, ERα normalized to actin; read-out: IC50, ER downregulation in T47D/Y537S cells", "from_the_text": "(§1) IC50 values were obtained from dose-response curves for all treatments."}, "mutant ER (Y537S ESR1) [4]": {"test_system": "mutant ER (Y537S ESR1)", "assay": "ER downregulation in T47D/Y537S cells (Wes Simple Western)", "type": "cell-based", "conditions": "T47D/Y537S", "from_the_text": "as §1"}, "[5]": {"assay": "Drug concentrations in final plasma and tumor tissue of MCF-7 xenograft mice", "type": "in vivo", "conditions": "for concentration at 3 weeks: female, Nu/Nu, mouse, end of study", "method": "The plasma samples of 100 μL each were processed for analysis by a TSQ UPLC-MS/MS system. Aliquots of 10 μL of 0.5 ng/μl E-Tamoxifen-2C^13, N^15, 200 μL methanol, and 400 μl chloroform were added to the plasma in a 1.5 mL centrifuge tube in sequence. The sample was vortexed and stored at −20°C for 4 hours, followed by sonication in a Branson B3510MT Ultrasonic Cleaners for 30 min and centrifuged at 12000 RPM on a Heraeus Fresco 21 Refrigerated Micro Centrifuge from Thermo Fisher Scientific for 10 min. The supernatant was dried with a nitrogen gas flow and suspended in 100 μL methanol. Aliquots of 10 μL of the above processed samples were injected into a TSQ Vantage mass spectrometer connected with a heated electrospray ionization probe and a Dionex Ultimat 3000 UHPLC with a Hypersil gold column (50×2.1 mm). The probe setting and front mass spectrometer setting were controlled as follows: spray voltage 3200 voltage, auxiliary gas 10psi, vaporizer temperature 365°C, capillary temperature 300°C, sheath gas 30psi, S-lens RF amplitude 51 voltage. The flow gradient was started with initial 30% mobile phase A of water with 0.05% formic acid to 1 min, to 100% mobile phase B of acetonitrile with 0.05% formic acid at 8 min, and return to 30% mobile phase A at 13 min."}, "[6]": {"test_system": "TM00386 PDX ER+/PR+/HER2- invasive ductal carcinoma", "assay": "Efficacy in patient derived xenograft (PDX) tumor model", "type": "in vivo, NOD scid gamma (NSG) mice"}, "[7]": {"assay": "Tolerability in tumor bearing animals", "conditions": "all tumor bearing animals, different oral doses", "method": "Four to six weeks old female ovariectomized Nu/Nu mice were purchased from Charles River Laboratories (Wilmington, MA). MCF-7 cells were cultured and harvested in the exponential growth phase using a PBS/EDTA solution. The animals were injected bilaterally in the mammary fat pad (MFP) with 5×10^6 viable cells suspended in 50 μL sterile PBS mixed with 100 μL Matrigel (reduced factor; BD Biosciences, Bed- ford, MA). 17b-Estradiol pellets (0.72 mg, 60 day release; Innovative Research of America, Sarasota, FL) were implanted subcutaneously in the lateral area of the neck using a precision trochar (10 gages) at the time of cell injection. Tumors were allowed to form and at day 15 post cell injection […]. […] Tumor sizes were monitored and recorded every other day for three weeks of treatment duration.\nIn a patient-derived xenograft (PDX) mouse model in which the primary tumor donated by a postmenopausal patient was engrafted in NOD scid gamma (NSG™) mice (TM00386 PDX model, Jackson Lab). […] Tumor sizes were monitored and recorded every other day for three weeks of treatment duration."}, "ERα": {"test_system": "ERα", "design": "method as in PMID 27529700", "conditions": "read-out: binding affinity to ERα, EC50; cited from earlier work"}}, "note": "Entries after “also recorded” stand apart in the source; their conditions may differ. Where two headings read alike, the source gives them in different places."}
{"compound": "C[C@]12CC[C@@H]3c4ccc(B(O)O)cc4C[C@@H](CCCCCCCCC[S+]([O-])CCCC(F)(F)C(F)(F)F)[C@H]3[C@@H]1CC[C@@H]2O", "note": "(stereo partly drawn) [ZB716]", "values": [{"measurement": "IC50", "setting": "[1]", "result": 3.2, "unit": "nM"}, {"measurement": "IC50", "setting": "[2]", "result": 24.4, "unit": "nM"}, {"measurement": "DC50", "setting": "mutant ER (Y537S ESR1) [3]", "result": 24, "unit": "nM"}, {"measurement": "drug concentration for 50% downregulation of mutant ER relative to wild type", "setting": "mutant ER (Y537S ESR1) [4]", "result": "about 10 times"}, {"measurement": "drug accumulation in tumor tissue relative to fulvestrant treated mice", "setting": "[5]; ZB716 10 mg/kg dose group", "result": 4, "unit": "fold"}, {"measurement": "final plasma concentration relative to fulvestrant treatment group", "setting": "[5]; ZB716 10 mg/kg dose group", "result": "over 6 fold"}, {"measurement": "drug concentration in tumor tissue relative to fulvestrant treated mice", "setting": "[5]; ZB716 30 mg/kg dose group", "result": 10, "unit": "fold"}, {"measurement": "final plasma concentration relative to fulvestrant treatment group", "setting": "[5]; ZB716 30 mg/kg dose group", "result": "> 20", "unit": "fold"}, {"measurement": "concentration at 3 weeks", "setting": "[5]; plasma, treatment ZB716 10 mg/kg daily PO, read-out: Average concentration in final plasma", "result": 182, "unit": "ng/mL"}, {"measurement": "concentration at 3 weeks", "setting": "[5]; plasma, treatment ZB716 30 mg/kg daily PO, read-out: Average concentration in final plasma", "result": 692, "unit": "ng/mL"}, {"measurement": "concentration at 3 weeks", "setting": "[5]; tumor tissue, treatment ZB716 10 mg/kg daily PO, read-out: Average concentration in tumor tissue", "result": 506, "unit": "ng/mL"}, {"measurement": "concentration at 3 weeks", "setting": "[5]; tumor tissue, treatment ZB716 30 mg/kg daily PO, read-out: Average concentration in tumor tissue", "result": 1540, "unit": "ng/mL"}, {"measurement": "PDX tumor growth", "setting": "[6]; ZB716 5 mg/kg PO daily", "result": "as effectively as fulvestrant treatment"}, {"measurement": "PDX tumor growth inhibition", "setting": "[6]; ZB716 20 mg/kg PO daily", "result": "greatest effect on tumor growth inhibition"}, {"measurement": "PDX tumor growth", "setting": "[6]; ZB716 at both doses (5 and 20 mg/kg PO daily)", "result": "effective in blocking tumor growth; also recorded: regression of tumor comparable to the fulvestrant group"}, {"measurement": "animal body weights", "setting": "[7]", "result": "no significant loss or increase of animal body weights"}, {"measurement": "toxicities in the entire course of treatment", "setting": "[7]", "result": "no apparent toxicities were observed"}, {"measurement": "EC50", "setting": "ERα", "result": 4.1, "unit": "nM"}]}
